Assay results from patent publication US9149465B2, “Isoxazolines as inhibitors of fatty acid amide hydrolase” (Infinity Pharmaceuticals, Inc., priority 2009, dated 2015).

molecular target: T1, human FAAH (Homo sapiens, UniProt O00519); experiment: Inhibition of human FAAH (AMC arachidonoyl amide fluorescence assay); type: biochemical; conditions: inhibitor preincubated 30 minutes at room temperature; 20 μM AMC arachidonoyl amide; 4 hours; read-out: Activity (Ki, inhibitors of human FAAH)
T1 construct: host or cells: COS-7 cells, transient transfection; 13,000 g membrane fraction solubilised in 1% Triton X-100
T1 sequence (O00519 1-579): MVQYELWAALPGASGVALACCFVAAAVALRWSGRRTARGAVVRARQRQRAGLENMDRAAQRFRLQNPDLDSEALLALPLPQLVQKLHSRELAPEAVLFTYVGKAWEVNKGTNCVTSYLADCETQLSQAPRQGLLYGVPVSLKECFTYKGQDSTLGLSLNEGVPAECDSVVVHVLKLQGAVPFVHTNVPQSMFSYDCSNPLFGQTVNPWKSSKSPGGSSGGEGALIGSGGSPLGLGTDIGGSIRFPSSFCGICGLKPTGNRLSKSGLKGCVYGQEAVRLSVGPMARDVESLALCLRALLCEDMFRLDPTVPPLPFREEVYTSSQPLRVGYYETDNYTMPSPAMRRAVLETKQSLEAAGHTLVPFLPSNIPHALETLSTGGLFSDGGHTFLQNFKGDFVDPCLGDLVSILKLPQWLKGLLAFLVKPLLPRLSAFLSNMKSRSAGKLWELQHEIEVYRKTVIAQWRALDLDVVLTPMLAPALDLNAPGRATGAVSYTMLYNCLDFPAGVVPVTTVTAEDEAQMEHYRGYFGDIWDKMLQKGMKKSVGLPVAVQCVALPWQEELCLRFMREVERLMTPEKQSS
In short: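 Solubilized membrane fraction from COS-7 cells transiently expressing human FAAH (0.05 mg/mL final) preincubated 30 min at room temperature with 3-fold serially diluted inhibitor, then reacted 4 h at room temperature with 20 μM AMC arachidonoyl amide. Stopped with α-ketoheterocycle; fluorescence read. Ki from single-site competitive fit, Km fixed at 12 μM.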

SMILES | Ki [nM]
c1ccc(OC2=NOC(c3ccc(Oc4ccccc4)cc3)C2)cc1 (single isomer, unassigned) [I-23] | ≥ 1000
CC1(c2ccc(OC(F)(F)F)cc2)CC(Oc2ccc(-c3ccoc3)nc2)=NO1 (racemic) [I-154] | ≤ 100
COc1ncc(OC2=NOC(c3ccc(Oc4ccccc4)cc3)C2)cn1 (racemic) [I-66] | ≤ 100
Cc1nnc(-c2ccc(OC3=NOC(C)(c4ccc(OC(F)(F)F)cc4)C3)cn2)s1 (racemic) [I-158] | ≤ 100
COC(=O)c1ccc(OC2=NOC(c3ccc(Oc4ccccc4)cc3)C2)cn1 (racemic) [I-67] | ≤ 100
NC(=O)CNC(=O)c1ccc(OC2=NOC(c3ccc(OC(F)(F)F)cc3)C2)cn1 (racemic) [I-118] | 100 to 1000
Cc1nnc(-c2ccc(OC3=NOC(c4ccc(OC(F)(F)F)cc4)C3)cn2)o1 (racemic) [I-157] | ≤ 100
CC1(c2ccc(OC(F)(F)F)cc2)CC(n2cnc(C(=O)O)n2)=NO1 (racemic) [I-171] | ≥ 1000
c1ccc(C2CC(Oc3cncnc3)=NO2)cc1 (racemic) [I-166] | 100 to 1000
CC(C)Oc1ccc([C@H]2CC(Oc3ccc(C(=O)O)nc3)=NO2)cc1 (racemic) [I-140] | ≤ 100
CCN(C1=NOC(c2ccc(OC(F)(F)F)cc2)C1)c1ccccc1 (racemic) [I-253] | ≥ 1000
COC(=O)c1cncc(OC2=NOC(c3ccc(OC(F)(F)F)cc3)C2)c1 (single isomer, unassigned) [I-46] | 100 to 1000
